Molecules are shown by their SMILES.

The values below come from patent US20180000085A1, “USE OF PICOLINAMIDE COMPOUNDS WITH FUNGICIDAL ACTIVITY” (DOW AGROSCIENCES LLC, priority 2014, published 2018).

Assay [1] has as its system Puccinia triticina. The experiment in a line: Wheat brown rust (PUCCRT) disease control on wheat seedlings. The format is in vivo. The settings on record: for PUCCRT 1DP disease control rating, HV activity at 100 ppm / PUCCRT 3DC disease control rating, HV activity at 100 ppm: high volume application; for PUCCRT 1DP disease control rating, HV activity at 100 ppm / PUCCRT 1DP disease control rating, LV activity at 125.1 g/H: 1 day protectant; for PUCCRT 3DC disease control rating, HV activity at 100 ppm / PUCCRT 3DC disease control rating, LV activity at 125.1 g/H: 3 day curative; for PUCCRT 1DP disease control rating, LV activity at 125.1 g/H / PUCCRT 3DC disease control rating, LV activity at 125.1 g/H / LV activity at 125.1 g/H PUCCRT 1DP (disease control rating) / LV activity at 125.1 g/H PUCCRT 3DC (disease control rating): low volume application; for HV activity at 100 ppm PUCCRT 1DP (disease control rating) / HV activity at 100 ppm PUCCRT 3DC (disease control rating): HV application.

For assay [2], the system named is Zymoseptoria tritici. As to the kind of experiment: Leaf blotch of wheat (SEPTTR) disease control on wheat seedlings. The settings on record: for SEPTTR 1DP disease control rating, HV activity at 100 ppm / SEPTTR 3DC disease control rating, HV activity at 100 ppm: high volume application; for SEPTTR 1DP disease control rating, HV activity at 100 ppm / SEPTTR 1DP disease control rating, LV activity at 125.1 g/H: 1 day protectant; for SEPTTR 3DC disease control rating, HV activity at 100 ppm / SEPTTR 3DC disease control rating, LV activity at 125.1 g/H: 3 day curative; for SEPTTR 1DP disease control rating, LV activity at 125.1 g/H / SEPTTR 3DC disease control rating, LV activity at 125.1 g/H / LV activity at 125.1 g/H SEPTTR 1DP (disease control rating) / LV activity at 125.1 g/H SEPTTR 3DC (disease control rating): low volume application; for HV activity at 100 ppm SEPTTR 1DP (disease control rating) / HV activity at 100 ppm SEPTTR 3DC (disease control rating): HV application. Details: key to SEPTTR 1DP, HV activity at 100 ppm (% control rating) / SEPTTR 3DC, HV activity at 100 ppm (% control rating) / SEPTTR disease control, 1DP / SEPTTR disease control, 3DC / SEPTTR 1DP disease control rating, HV activity / SEPTTR 3DC disease control rating, HV activity / SEPTTR 3DC, LV activity at 125.1 g/H (% Control rating) / SEPTTR 1DP, LV activity at 125.1 g/H (% Control rating) / SEPTTR 1DP disease control rating, LV activity at 125.1 g/H / SEPTTR 3DC disease control rating, LV activity at 125.1 g/H / SEPTTR 3DC disease control rating, HV activity at 100 ppm / SEPTTR 1DP disease control rating, HV activity at 100 ppm / HV activity at 100 ppm SEPTTR 3DC (disease control rating) / HV activity at 100 ppm SEPTTR 1DP (disease control rating) / LV activity at 125.1 g/H SEPTTR 1DP (disease control rating) / LV activity at 125.1 g/H SEPTTR 3DC (disease control rating): A: > 80; B: ≤ 80; C: Not Tested; D: No Activity Observed in the Reported Assay. The format is in vivo.

Setting [3] is: 1 Day Protectant, wheat brown rust.
[4] abbreviates: 3 Day Curative, wheat brown rust.
Where [5] appears, read: 1 Day Protectant, wheat leaf blotch.
[6] abbreviates: 3 Day Curative, wheat leaf blotch.

With `COc1ccnc(C(=O)NC(Cc2ccccc2)C(=O)OC(C)C(Oc2ccccc2)C(C)C)c1O` (mixture of isomers) [Cmpd 812], in assay [1], the “PUCCRT 1DP disease control rating, HV activity at 100 ppm” value is “A (> 80)” and the “PUCCRT 3DC disease control rating, HV activity at 100 ppm” value was “A (> 80)”. In assay [2], the “SEPTTR 1DP disease control rating, HV activity at 100 ppm” value is “B (≤ 80)” and the “SEPTTR 3DC disease control rating, HV activity at 100 ppm” value is given as “B (≤ 80)”.

In the case of `C=CC[C@@H](Oc1ccccc1)[C@H](C)OC(=O)[C@H](C)NC(=O)c1nccc(OC)c1OC(C)=O` [Cmpd 695], in assay [1], the “PUCCRT 1DP disease control rating, LV activity at 125.1 g/H” value is recorded as “A (> 80)” and the “PUCCRT 3DC disease control rating, LV activity at 125.1 g/H” value is given as “A (> 80)”. In assay [2], the “SEPTTR 1DP disease control rating, LV activity at 125.1 g/H” value is reported as “B (≤ 80)” and the “SEPTTR 3DC disease control rating, LV activity at 125.1 g/H” value is “B (≤ 80)”.

Consider `COc1ccnc(C(=O)N[C@@H](C)C(=O)O[C@@H](C)[C@@H](CC(C)C)Oc2ccc(C)cc2Cl)c1O` [Cmpd 1051], for which the “HV activity at 100 ppm PUCCRT 1DP (disease control rating)” value in assay [1] (setting [3]) was “A (> 80)”. Further, the “HV activity at 100 ppm PUCCRT 3DC (disease control rating)” value in assay [1] (setting [4]) was “B (≤ 80)”. In assay [2] (setting [5]), the “HV activity at 100 ppm SEPTTR 1DP (disease control rating)” value was “B (≤ 80)”. Further, the “HV activity at 100 ppm SEPTTR 3DC (disease control rating)” value in assay [2] (setting [6]) is on record as “D”.

Regarding `CCC(CC)[C@@H](Oc1ccccc1Cl)[C@H](C)OC(=O)[C@@H](NC(=O)c1nccc(OC)c1OC(C)=O)C(C)C` [Cmpd 662], in assay [1], the “PUCCRT 1DP disease control rating, LV activity at 125.1 g/H” value is “A (> 80)” and the “PUCCRT 3DC disease control rating, LV activity at 125.1 g/H” value is on record as “B (≤ 80)”. Besides, in assay [2], the “SEPTTR 1DP disease control rating, LV activity at 125.1 g/H” value is given as “D” and the “SEPTTR 3DC disease control rating, LV activity at 125.1 g/H” value is “B (≤ 80)”.

In the case of `COc1ccnc(C(=O)N[C@@H](C)C(=O)O[C@@H](C)[C@H](Oc2ccc(C)cc2Cl)C(C)(C)C)c1O` [Cmpd 1006], in assay [1], the “PUCCRT 1DP disease control rating, HV activity at 100 ppm” value is on record as “A (> 80)” and the “PUCCRT 3DC disease control rating, HV activity at 100 ppm” value is reported as “A (> 80)”. Moreover, in assay [2], the “SEPTTR 1DP disease control rating, HV activity at 100 ppm” value is “B (≤ 80)” and the “SEPTTR 3DC disease control rating, HV activity at 100 ppm” value is recorded as “B (≤ 80)”.

Consider `CCC(CC)[C@@H](OCC(C)C)[C@H](C)OC(=O)[C@H](C)NC(=O)c1nccc(OC)c1O` [Cmpd 354], for which, in assay [1] (HV application at 100 ppm, 1 Day Protectant, wheat brown rust), the “PUCCRT 1DP disease control rating, HV activity” value was “B (≤ 80)”. Moreover, the “PUCCRT 3DC disease control rating, HV activity” value in assay [1] (HV application at 100 ppm, 3 Day Curative, wheat brown rust) is listed as “A (> 80)”. Besides, the “SEPTTR 1DP disease control rating, HV activity” value in assay [2] (HV application at 100 ppm, 1 Day Protectant, wheat leaf blotch) was “B (≤ 80)”. Moreover, in assay [2] (HV application at 100 ppm, 3 Day Curative, wheat leaf blotch), the “SEPTTR 3DC disease control rating, HV activity” value was “B (≤ 80)”.

In the case of `COc1ccnc(C(=O)NC(C)C(=O)OC(C)C(Oc2ccccc2)c2ccccc2)c1OCOC(C)=O` (stereo not shown) [Cmpd 872], in assay [1], the “PUCCRT 1DP disease control rating, LV activity at 125.1 g/H” value is “A (> 80)” and the “PUCCRT 3DC disease control rating, LV activity at 125.1 g/H” value is reported as “A (> 80)”. Also, in assay [2], the “SEPTTR 1DP disease control rating, LV activity at 125.1 g/H” value was “A (> 80)” and the “SEPTTR 3DC disease control rating, LV activity at 125.1 g/H” value was “A (> 80)”.

With `COc1cc(O[C@@H]([C@H](C)OC(=O)[C@H](C)NC(=O)c2nccc(OC)c2OC(C)=O)C(C)(C)C)ccc1Cl` [Cmpd 1070], the “LV activity at 125.1 g/H PUCCRT 1DP (disease control rating)” value in assay [1] (setting [3]) is “A (> 80)”. In addition, the “LV activity at 125.1 g/H PUCCRT 3DC (disease control rating)” value in assay [1] (setting [4]) was “A (> 80)”. Also, the “LV activity at 125.1 g/H SEPTTR 1DP (disease control rating)” value in assay [2] (setting [5]) was “B (≤ 80)”. For the same compound, the “LV activity at 125.1 g/H SEPTTR 3DC (disease control rating)” value in assay [2] (setting [6]) is given as “D”.

On to `C=CC[C@@H](Oc1ccc(C(F)(F)F)cc1)[C@H](C)OC(=O)[C@H](C)NC(=O)c1nccc(OC)c1OCOC(C)=O` [Cmpd 1077], for which the “LV activity at 125.1 g/H PUCCRT 1DP (disease control rating)” value in assay [1] (setting [3]) is given as “A (> 80)”. Also, the “LV activity at 125.1 g/H PUCCRT 3DC (disease control rating)” value in assay [1] (setting [4]) is on record as “B (≤ 80)”. For the same compound, the “LV activity at 125.1 g/H SEPTTR 1DP (disease control rating)” value in assay [2] (setting [5]) is listed as “B (≤ 80)”. Besides, in assay [2] (setting [6]), the “LV activity at 125.1 g/H SEPTTR 3DC (disease control rating)” value is “D”.

For `CC(C)C[C@@H](Oc1cccc(F)c1)[C@H](C)OC(=O)[C@H](C)NC(=O)c1ncccc1O` [Cmpd 1035], the “HV activity at 100 ppm PUCCRT 1DP (disease control rating)” value in assay [1] (setting [3]) is “A (> 80)”. The “HV activity at 100 ppm PUCCRT 3DC (disease control rating)” value in assay [1] (setting [4]) is recorded as “A (> 80)”. In addition, in assay [2] (setting [5]), the “HV activity at 100 ppm SEPTTR 1DP (disease control rating)” value is “B (≤ 80)”. Also, the “HV activity at 100 ppm SEPTTR 3DC (disease control rating)” value in assay [2] (setting [6]) is listed as “D”.
